These results are taken from patent US7166738B2, “Non-nucleoside reverse transcriptase inhibitors” (Roche Palo Alto LLC, priority 2004, dated 2007).

The target in data set [1] is HIV-1 RT (Human immunodeficiency virus type 1 group M subtype B, UniProt P03366). Put plainly: HIV Reverse Transcriptase Assay: Inhibitor IC50 Determination. Format: biochemical. Here is the method: HIV Reverse Transcriptase Assay: Inhibitor IC50 Determination
HIV-1 RT assay was carried out in 96-well Millipore MultiScreen MADVNOB50 plates using purified recombinant enzyme and a poly(rA)/oligo(dT)16 template-primer in a total volume of 50 μL. The assay constituents were 50 mM Tris/HCl, 50 mM NaCl, 1 mM EDTA, 6 mM MgCl2, 5 μM dTTP, 0.15 μCi [^3H] dTTP, 5 μg/ml poly (rA) pre annealed to 2.5 μg/ml oligo (dT)16 and a range of inhibitor concentrations in a final concentration of 10% DMSO. Reactions were initiated by adding 4 nM HIV-1 RT and after incubation at 37° C. for 30 min, they were stopped by the addition of 50 μl ice cold 20% TCA and allowed to precipitate at 4° C. for 30 min. The precipitates were collected by applying vacuum to the plate and sequentially washing with 3×200 μl of 10% TCA and 2×200 μl 70% ethanol. Finally, the plates were dried and radioactivity counted in a Packard TopCounter after the addition of 25 μl scintillation fluid per well. IC50's were calculated by plotting % inhibition versus log10 inhibitor concentrations.

In data set [2] the test system is HIV. Put plainly: Anti-viral Assay (method of Pauwels et al.). As to conditions: Human immunodeficiency virus 1. Format: cell-based. Here is the method: Anti-viral assays were carried out by the method described by R. E. Pauwels et al. J. Virol. Methods 1988 20(4):309–322.
[3] abbreviates: purified recombinant enzyme, poly(rA)/oligo(dT)16 template-primer, 37° C. 30 min, read-out: RT inhibition.

Structures can show the parent of a compound that is named as a salt. Where two headings read alike, the source gives them in different places.

The term melting point denotes the temperature of the solid-liquid transition. Compound `CCc1ccc(CC(=O)Nc2ccc(S(N)(=O)=O)cc2C)c(F)c1Oc1cc(C#N)cc(C(F)F)c1` [Compound I-180, 2-[3-(3-Cyano-5-difluoromethyl-phenoxy)-4-ethyl-2-fluoro-phenyl]-N-(2-methyl-4-sulfamoyl-phenyl)-acetamide] gave a melting point of 237.6 to 238.4 °C. For the same compound, the IC50 in data set [1] (setting [3]) was found to be 9.1 nM.
For orientation: EC50 means the concentration at which the effect is half-maximal. The low end stands for higher potency in that assay, the high end for lower potency in that assay. For `N#Cc1cc(Oc2c(Br)ccc(CC(=O)Nc3ccc(S(N)(=O)=O)cc3Cl)c2F)cc(C(F)F)c1` [Compound I-165, 2-[4-Bromo-3-(3-cyano-5-difluoromethyl-phenoxy)-2-fluoro-phenyl]-N-(2-chloro-4-sulfamoyl-phenyl)-acetamide], the melting point was in the range of 205.4 to 207.7 °C. In data set [2], this compound registered an EC50 of 0.4 nM. For the same compound, in data set [1] (setting [3]), the IC50 was 21 nM.
In the case of `N#Cc1cc(Cl)cc(Oc2c(Br)ccc(CC(=O)Nc3ccc(S(N)(=O)=O)cc3Cl)c2F)c1` [Compound I-109, 2-[4-Bromo-3-(3-chloro-5-cyano-phenoxy)-2-fluoro-phenyl]-N-(2-chloro-4-sulfamoyl-phenyl)-acetamide], the melting point was in the range of 165 to 166.6 °C. In data set [2], this compound showed an EC50 of 1.3 nM. The same compound registered an IC50 in data set [1] of 13.6 nM.
For `CCC(=O)NS(=O)(=O)c1ccc(NC(=O)Cc2ccc(Br)c(Oc3cc(Cl)cc(C#N)c3)c2F)c(Cl)c1` [Compound I-63, 2-[4-Bromo-3-(3-chloro-5-cyano-phenoxy)-2-fluoro-phenyl]-N-(2-chloro-4-propionylsulfamoyl-phenyl)-acetamide; sodium salt], in data set [1], the IC50 was 5.8 nM.
Regarding `CC(C)[C@H](N)C(=O)NS(=O)(=O)c1ccc(NC(=O)Cc2ccc(Cl)c(Oc3cc(Cl)cc(C#N)c3)c2F)c(Cl)c1.[Na]` [Compound I-127, N-[4-((S)-2-Amino-3-methyl-butyrylsulfamoyl)-2-chloro-phenyl]-2-[4-chloro-3-(3-chloro-5-cyano-phenoxy)-2-fluoro-phenyl]-acetamide; sodium salt], the melting point was in the range of 219.4 to 220.2 °C. Also, the IC50 in data set [1] was 5.9 nM.
In the case of `Cc1ccc(CC(=O)Nc2ccc(S(N)(=O)=O)cc2Cl)c(F)c1Oc1cc(Cl)cc(C#N)c1` [Compound I-83, 2-[3-(3-Chloro-5-cyano-phenoxy)-2-fluoro-4-methyl-phenyl]-N-(2-chloro-4-sulfamoyl-phenyl)-acetamide], the melting point lay in the range of 228.9 to 230.6 °C. In addition, in data set [2], a half-maximal response (EC50) required 0.9 nM. For the same compound, the IC50 in data set [1] (setting [3]) amounted to 8.1 nM.
`Cc1cc(S(N)(=O)=O)ccc1NC(=O)Cc1ccc(Br)c(Oc2cc(C#N)cc(C(F)F)c2)c1F` [Compound I-169, 2-[4-Bromo-3-(3-cyano-5-difluoromethyl-phenoxy)-2-fluoro-phenyl]-N-(2-methyl-4-sulfamoyl-phenyl)-acetamide] showed a melting point of 223.9 to 225 °C. The compound also yielded an EC50 in data set [2] of 0.4 nM. The IC50 in data set [1] (setting [3]) worked out at 27 nM.
`CCCC(=O)NS(=O)(=O)c1ccc(NC(=O)Cc2ccc(Cl)c(Oc3cc(Cl)cc(C#N)c3)c2F)c(Cl)c1.[Na]` [Compound I-138, N-(4-Butyrylsulfamoyl-2-chloro-phenyl)-2-[4-chloro-3-(3-chloro-5-cyano-phenoxy)-2-fluoro-phenyl]-acetamide; sodium salt]: the melting point lay in the range of 157.2 to 157.9 °C. The compound also returned an IC50 in data set [1] of 4.5 nM.
For the compound `CCc1ccc(CC(=O)Nc2ccc(S(N)(=O)=O)cc2Cl)cc1Oc1cc(C#N)cc(C(F)F)c1` [Compound I-140, N-(2-Chloro-4-sulfamoyl-phenyl)-2-[3-(3-cyano-5-difluoromethyl-phenoxy)-4-ethyl-phenyl]-acetamide], the melting point lay in the range of 191.8 to 192.5 °C. In data set [2], this compound had an EC50 of 0.4 nM. The IC50 in data set [1] (setting [3]) is 21 nM.
Taken in the same sequence, the figures for `Cc1ccc(CC(=O)Nc2ccc(S(N)(=O)=O)cc2Cl)c(F)c1Oc1cc(C#N)cc(C(F)F)c1` [Compound I-84, N-(2-Chloro-4-sulfamoyl-phenyl)-2-[3-(3-cyano-5-difluoromethyl-phenoxy)-2-fluoro-4-methyl-phenyl]-acetamide] were 218 to 218.7 °C, 0.4 nM and 14 nM.
`CCc1ccc(CC(=O)Nc2ccc(S(N)(=O)=O)cc2Cl)c(F)c1Oc1cc(C#N)cc(C(F)F)c1` [Compound I-179, N-(2-Chloro-4-sulfamoyl-phenyl)-2-[3-(3-cyano-5-difluoromethyl-phenoxy)-4-ethyl-2-fluoro-phenyl]-acetamide] gave a melting point of 239.6 to 240.7 °C. The EC50 in data set [2] stood at 0.4 nM. Moreover, in data set [1] (setting [3]), the IC50 stood at 7.4 nM.
Turning to `Cc1cc(S(=O)(=O)N2CCSCC2)ccc1NC(=O)Cc1ccc(C)c(Oc2cc(Cl)cc(C#N)c2)c1` [Compound I-117, 2-[3-(3-Chloro-5-cyano-phenoxy)-4-methyl-phenyl]-N-[2-methyl-4-(thiomorpholine-4-sulfonyl)-phenyl]-acetamide], the melting point lay in the range of 151.9 to 155.3 °C.
The same measure, in the same setting: the result for `CC(F)(F)c1cc(C#N)cc(Oc2c(Cl)ccc(CC(=O)Nc3ccc(S(N)(=O)=O)cc3Cl)c2F)c1` [Compound I-97, 2-{4-Chloro-3-[3-cyano-5-(1,1-difluoro-ethyl)-phenoxy]-2-fluoro-phenyl}-N-(2-chloro-4-sulfamoyl-phenyl)-acetamide] reads 192 to 197.6 °C; that for `Cc1cc(S(N)(=O)=O)ccc1NC(=O)Cc1ccc(Cl)c(Oc2cc(C#N)cc(C#CCO)c2)c1F` [Compound I-186, 2-{4-Chloro-3-[3-cyano-5-(3-hydroxy-prop-1-ynyl)-phenoxy]-2-fluoro-phenyl}-N-(2-methyl-4-sulfamoyl-phenyl)-acetamide], 170.1 to 173.2 °C; that for `CCc1ccc(CC(=O)Nc2ccc(S(N)(=O)=O)cc2)cc1Oc1cc(C#N)cc(C(F)F)c1` [Compound I-91, 2-[3-(3-Cyano-5-difluoromethyl-phenoxy)-4-ethyl-phenyl]-N-(4-sulfamoyl-phenyl)-acetamide], 188 to 198 °C.
The same measure, in the same setting: the result for `NS(=O)(=O)c1ccc(NC(=O)Cc2ccc(Cl)c(Oc3cc(Cl)ccc3Br)c2)cc1` [Compound I-4, 2-[3-(2-Bromo-5-chloro-phenoxy)-4-chloro-phenyl]-N-(4-sulfamoyl-phenyl)-acetamide] reads 260.1 to 261.9 °C.
Same read-out and setting: the result for `Cc1cc(CC(=O)Nc2ccc(S(N)(=O)=O)cc2Cl)cc(Oc2cc(Cl)cc(C#N)c2)c1C` [Compound I-184, 2-[3-(3-Chloro-5-cyano-phenoxy)-4,5-dimethyl-phenyl]-N-(2-chloro-4-sulfamoyl-phenyl)-acetamide] reads 224.3 to 225.7 °C.
Compound `CCC(=O)NS(=O)(=O)c1ccc(NC(=O)Cc2ccc(Cl)c(Oc3cc(Cl)cc(C#N)c3)c2F)c(Cl)c1.[Na]` displayed a melting point of 155.4 to 157.5 °C.
